Results reported in PMC6934184, “Selective DNA-PKcs inhibition extends the therapeutic index of localized radiotherapy and chemotherapy” (The Journal of Clinical Investigation, 2019).

Target: T1, IRAK4 (Homo sapiens, UniProt Q9NWZ3)
T1 construct: purchased Thermo Fisher Scientific (Life Technologies) SelectScreen
Assay: SelectScreen Z'LYTE
Format: biochemical
Summary of the method: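 Percent values come from Thermo SelectScreen profiling of NU5455, combining activity and binding assays. CSF1R was run in Z'LYTE format at Km app ATP, and CAMK1 in Adapta format with ATP listed at 10.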

T1 sequence (Q9NWZ3 whole entry): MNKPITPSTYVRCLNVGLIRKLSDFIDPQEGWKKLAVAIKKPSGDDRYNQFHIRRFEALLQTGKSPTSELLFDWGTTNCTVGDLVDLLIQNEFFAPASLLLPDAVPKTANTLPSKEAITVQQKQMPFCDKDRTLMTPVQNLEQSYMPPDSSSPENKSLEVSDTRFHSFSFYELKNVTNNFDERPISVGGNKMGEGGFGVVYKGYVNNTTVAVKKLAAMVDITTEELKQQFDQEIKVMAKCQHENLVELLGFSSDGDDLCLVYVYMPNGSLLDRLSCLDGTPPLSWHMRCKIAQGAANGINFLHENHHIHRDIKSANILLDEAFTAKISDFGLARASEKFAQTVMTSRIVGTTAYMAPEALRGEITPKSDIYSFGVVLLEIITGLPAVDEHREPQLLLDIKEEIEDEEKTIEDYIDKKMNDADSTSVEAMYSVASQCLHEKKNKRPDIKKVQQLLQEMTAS

In the case of `CN(C(=O)CN1CCOCC1)c1ccc2sc3c(-c4cccc5c(=O)cc(N6CC7CCC(C6)O7)oc45)cccc3c2c1` [NU5455], the inhibition at 1 µM is reported as -20.5%.
